Results from article PMC6271975, “Structure-Activity Relationship Study of Sesquiterpene Lactones and Their Semi-Synthetic Amino Derivatives as Potential Antitrypanosomal Products” (Molecules, 2014).
Entries after “also recorded” stand apart in the source; their conditions may differ. Structures can show the parent of a compound that is named as a salt. Where two headings read alike, the source gives them in different places.

Key:
[1] = test system: T. b. rhodesiense STIB900; assay: Acute mouse sleeping sickness model (STIB 900); type: in vivo, NMRI mice; conditions: for signs of toxicity in mice: acute mouse model; for survival: po, average of all mice, untreated controls euthanized at day 10 post infection
Description: This model mimics the first stage of the human African trypanosomiasis. Adult female NMRI mice were purchased from Janvier (St. Berthevin, France). They weighed between 20 and 25 g at the beginning of the study and were kept under standard conditions at 22 °C and 60%–70% humidity in macrolon type III cages with food pellets and water ad libitum. […] The samples were first dissolved in 100% DMSO, followed by addition of distilled H2O to a final DMSO concentration of 10%. For determination of the in vivo antitrypanosomal activity, mice were infected intraperitoneally with 1 × 10^4 STIB900 bloodstream forms. Experimental groups of four mice were treated orally once a day on four consecutive days from day 3 to day 6 post infection. A control group of four mice was infected, but remained untreated. The determination of the parasitaemia was done on day 7 post infection. […] Five μL of this mixture were transferred to a glass slide and covered with an 18 × 18 mm cover slide. The sample was examined under a light microscope (200-fold magnification) and parasites were counted in 3 of the 16 squares of the grid.

[2] = test system: rat skeletal myoblasts (L6-cells); set-up: method as in PMID 22331812, PMID 24080104, PMID 21624443, PMID 22396915; conditions: cytotoxicity; previously reported compounds included for comparison; cited from earlier work
[3] = test system: T. b. rhodesiense STIB 900 bloodstream forms; set-up: method as in PMID 22331812, PMID 24080104, PMID 21624443, PMID 22396915; conditions: cited from earlier work
[4] = test system: T. b. rhodesiense STIB900; set-up: method as in PMID 22331812, PMID 24080104; conditions: intraperitoneal, 10 mg/kg/b.i.d. for four consecutive days; cited from earlier work
[5] = test system: rat skeletal myoblasts (L6-cells); assay: cells; type: cell-based; conditions: Rattus norvegicus, L6; cytotoxicity; 70 h incubation; average of three independent assays; read-out: L6 cells IC50
Description: The cytotoxicity assay was performed with rat skeletal myoblasts (L6-cells) seeded in 100 μL RPMI 1640 in 96-well micro titre plates, using the Alamar Blue assay described above. After 24 h the medium was removed and replaced by 100 μL of fresh RPMI 1640 with serial threefold drug dilution. Podophyllotoxin (purity > 95%, Sigma-Aldrich) was used as a reference drug. After 70 h of incubation under a humidified 5% CO2 atmosphere, 10 μL of the Alamar blue marker (see above) was added to all wells. The plates were incubated for an additional 2 h. A Spectramax Gemini XS micro plate fluorescence reader (Molecular Devices) was used to read the plates using an excitation wavelength of 536 nm and an emission wavelength of 588 nm. The IC50s were calculated from the sigmoidal growth inhibition curves using Softmax Pro software (Molecular Devices).

[6] = test system: T. b. rhodesiense STIB 900 bloodstream forms; assay: In vitro antitrypanosomal Alamar Blue assay; type: cell-based, Trypanosoma brucei rhodesiense; conditions: Trypanosoma brucei; 70 h incubation; average of three independent assays; read-out: T. brucei STIB 900 IC50
Description: Evaluation of in vitro antiprotozoal activity against T. b. rhodesiense was done using the Alamar Blue assay to determine IC50s as previously described. Serial threefold dilution were prepared in 96-well micro titre plates, and 4000 T. b. rhodesiense STIB 900 bloodstream forms in 50 μL were added to each well except for the negative controls. Melarsoprol (Arsobal®, purity > 95%, Sanofi-Aventis, Meyrin, Switzerland) was used as reference drugs. […] The IC50 values were calculated from the sigmoidal growth inhibition curves using Softmax Pro software (Molecular Devices).

Which results are given for `C=C(CO)C(=O)O[C@H]1CC(=C)[C@@H]2C[C@H](O)C(=C)[C@@H]2[C@H]2OC(=O)C(=C)[C@@H]21` [Compound 1, Cynaropicrin]?
signs of toxicity in mice ([1]; oral administration): euthanized on day 10 post infection due to obvious signs of cytotoxicity; parasitemia on day 7 after infection ([1]; oral, 50 mg/kg body weight/day, four mice): reduced parasitemia; survival ([1]; 4 × 50 mg/kg): 9.5 days; IC50 [2]: 2200 ± 300 nM; SI (Selectivity Index) ([3]; IC50 against L6 cells divided by IC50 against STIB 900 strain, previously reported compounds): 7.8; IC50 ([3]; previously reported compounds included for comparison, compound 9 tested once, read-out: T. brucei STIB 900 IC50): 300 ± 1 nM; cure of mice [4]: not able to cure the mice; parasitemia [4]: parasitemia was decreased over several days

With `C=C(CO)C(=O)OC1CC(=C)C2CC(O)C(=C)C2C2OC(=O)C(CN(C)C)C12` (centres unmarked) [Compound 19, Cynaropicrin dimethylamine adduct hydrochloride] as the molecule, how does the “signs of toxicity in mice” value ([1]; oral administration) read?
The value was “less signs of toxicity”.

What about the in vivo efficacy ([1]; oral administration, mean survival time versus control) of the same molecule?
The in vivo efficacy was “no in vivo efficacy; also recorded: did not show any in vivo efficacy”.

And the “survival” value ([1]; 4 × 25 mg/kg)?
Its value is 8.5 days.

And the “survival” value ([1]; 4 × 50 mg/kg)?
The value was 10 days.

What about the IC50 [5] of the same molecule?
The IC50 was 5.2 ± 1.3 µM.

And the IC50 [6]?
Its IC50 is 500 ± 3 nM.
